This note sets out measurements from US20230322805A1, “NOVEL PYRIMIDODIAZEPINE DERIVATIVES OR USES THEREOF” (SPARK BIOPHARMA, INC., priority 2020, published 2023).

Test [1] addresses T1, PDIA3 (Homo sapiens, UniProt P30101).
T1 sequence (P30101 25-505): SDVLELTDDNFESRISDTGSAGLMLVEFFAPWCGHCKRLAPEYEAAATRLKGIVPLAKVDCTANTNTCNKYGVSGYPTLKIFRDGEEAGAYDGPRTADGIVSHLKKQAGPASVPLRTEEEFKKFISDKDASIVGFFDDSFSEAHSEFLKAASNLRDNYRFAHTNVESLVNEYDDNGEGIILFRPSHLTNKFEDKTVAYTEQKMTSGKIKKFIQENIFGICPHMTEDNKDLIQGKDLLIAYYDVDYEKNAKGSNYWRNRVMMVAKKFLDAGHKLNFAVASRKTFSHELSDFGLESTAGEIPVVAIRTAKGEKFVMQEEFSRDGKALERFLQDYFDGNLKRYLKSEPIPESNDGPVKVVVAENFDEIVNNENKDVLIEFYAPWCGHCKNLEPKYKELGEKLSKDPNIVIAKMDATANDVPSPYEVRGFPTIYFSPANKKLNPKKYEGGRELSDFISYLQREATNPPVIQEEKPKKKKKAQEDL
Nature of the test: TS-FITGE thermal stability shift. Format: binding. The arrangement: endogenous in cells; host or cells: HEK293 BiFC-tau cells (TS-FITGE, CETSA, PEG-maleimide assay). The note with it: 10 μM, 200 nM thapsigargin, 3 hours, HEK293 BiFC-tau cells. The method, then: HEK293 BiFC-tau cells were treated with dimethylsulfoxide (DMSO, 0.1%) and a compound according to the present invention (10 μM) in the presence of thapsigargin (200 nM) for 3 hours. The cell suspension was heated at the indicated temperature range for 3 minutes and then at 25° C. for 3 minutes. The heated cells were washed with PBS and resuspended in lysis buffer A (0.4% NP-40 in PBS supplemented with protease inhibitor cocktail). For cell lysis, cell suspensions were freeze-thawed in liquid nitrogen three times. The cell lysate was washed by centrifugation at 20000 g, 4° C. for 20 minutes. Protein concentration of the soluble fraction was quantified by Pierce BCA protein assay. After precipitating 50 μg of protein with cold acetone, it was centrifuged at […] and 4° C. for 7 minutes. The residual pellet was resuspended in 10 μl of conjugation buffer (30 mM Tris-HCl at pH 8.6, 30 mM thiourea, 7 M urea and 4% w/v CHAPS). 1 μl of 0.4 mM Cy2-N-hydroxysuccinimide(Cy2-NHS) (for DMSO-treated group), Cy3-NHS (for SB1607-treated group) or Cy5-NHS (for SB1617-treated group) was mixed with the protein and incubated at 4° C. for 45 minutes. […] Protein spot locations and fluorescence signals were analyzed with DeCyder 2D software ver. […]

For test [2], the system named is PERK signaling (p-PERK, p-elF2a, ATF4). Nature of the test: Time course of PERK activation in SH-SY5Y cells (immunoblot). Format: cell-based, human. Here is the method: 4-2. PDIA3 and DNAJC3 play a role in regulating tau aggregation by inhibiting the PERK signaling pathway. Accordingly, human neuroblastoma SH-SY5Y cells were treated with 10 μM SB1617, treated with or without thapsigargin, and PERK activation was confirmed over time.
The stress-response potency of SB1617 may be due to upregulation of PDIA3 and DNAJC3 levels or changes in the redox state of partner proteins under ER stress conditions.

Test [3] has as its system protein synthesis in SH-SY5Y cells. In words: Protein synthesis labelling with furomycin in SH-SY5Y cells. Format: cell-based, human. The note with it: 10 μM SB1617, with thapsigargin. The method, then: 5-1. […] To assure this, SH-SY5Y cells were treated with 10 μM SB1617 for directed time, and then the newly synthesized protein was labeled with 10 μg/mL furomycin for 10 minutes and visualized by anti-furomycin antibody staining.

With `CN(Cc1ccc(Cl)cc1)c1ncnc2c1[C@@H]1OC[C@H](CN2)N1S(=O)(=O)c1ccc([N+](=O)[O-])cc1` [Compound 117], in test [1], the “thermal stability of protein (TS-FITGE)” value is “thermal stability of the protein was improved”. The “PERK activation over time” value in test [2] (10 μM SB1617, with thapsigargin) is recorded as “prolonged PERK activation”. For the same compound, the “activation of downstream PERK signaling” value in test [2] (10 μM SB1617, without thapsigargin (absence of cell stress)) was “not significant”. In addition, the “inhibition of protein synthesis” value in test [3] was “enhanced and extended”.
